Several values for one entry are separate records, joined by “and”; a condition that tells them apart may be missing. Identical values can stand only once. Activity calls are given as the source filed them. No cut-off for these calls is given here.
What was measured:
A2780 [1] = assay: Tested for the cytotoxicity in A2780 ovarian cell line; assay type: functional, cell-based; conditions: Homo sapiens
CH1 [2] = assay: Tested for the cytotoxicity in CHIcisR ovarian cell line; assay type: functional, cell-based; conditions: Homo sapiens, CH1cisR
A2780 [3] = assay: Tested for the cytotoxicity in A2780cisR ovarian cell line (cisR denotes resistance to cisplatin); assay type: functional, cell-based; conditions: Homo sapiens
SK-OV-3 = assay: Tested for the cytotoxicity in SKOV-3 ovarian cell line; assay type: functional, cell-based; conditions: Homo sapiens
CH1 [4] = assay: Tested for the cytotoxicity in CHI ovarian cell line; assay type: functional, cell-based; conditions: Homo sapiens
[5] = Ratio of cytotoxicity of cisR/normal cell line; not active; assay type: functional
[6] = Ratio of cytotoxicity of cisR/normal cell line; assay type: functional
SNB-75 [7] = assay: Concentration required to restrict cell growth to 50% on continuous exposure for 48 hr in CNS (SNB-75) cell line; assay type: functional; conditions: Homo sapiens, SNB-75, 48 h
NCI-H522 [8] = assay: Concentration required to decrease cell population by 50% on continuous exposure for 48 hr in Lung ([…]) cell line; assay type: functional; conditions: Homo sapiens, NCI-H522, 48 h; read-out: LC50 (the source's name)
MDA-MB-435 [9] = assay: Concentration required to restrict cell growth to 50% on continuous exposure for 48 hr in Breast (MDA-MB-435) cell line; assay type: functional; conditions: Homo sapiens, MDA-MB-435, 48 h
SK-MEL-5 [10] = assay: Concentration required to decrease cell population by 50% on continuous exposure for 48 hr in Melanoma (SK-MEL-5) cell line; assay type: functional; conditions: Homo sapiens, SK-MEL-5, 48 h; read-out: LC50 (the source's name)
COLO 205 [11] = assay: Concentration required to restrict cell growth to 50% on continuous exposure for 48 hr in Colon (CoIo 205) cell line; assay type: functional; conditions: Homo sapiens, COLO 205, 48 h
SK-MEL-5 [12] = assay: Concentration required to restrict cell growth to 50% on continuous exposure for 48 hr in Melanoma (SK-MEL-5) cell line; assay type: functional; conditions: Homo sapiens, SK-MEL-5, 48 h
COLO 205 [13] = assay: Concentration required to decrease cell population by 50% on continuous exposure for 48 hr in Colon (COLO 205) cell line C; assay type: functional; conditions: Homo sapiens, COLO 205, 48 h; read-out: LC50 (the source's name)
RXF 393 [14] = assay: Concentration required to decrease cell population by 50% on continuous exposure for 48 hr in Renal (RXF 393) cell line; assay type: functional; conditions: Homo sapiens, RXF 393, 48 h; read-out: LC50 (the source's name)
SNB-75 [15] = assay: Concentration required to decrease cell population by 50% on continuous exposure for 48 hr in CNS (SNB-75) cell line; assay type: functional; conditions: Homo sapiens, SNB-75, 48 h; read-out: LC50 (the source's name)
RXF 393 [16] = assay: Concentration required to restrict cell growth to 50% on continuous exposure for 48 hr in Renal (RXF 393) cell line; assay type: functional; conditions: Homo sapiens, RXF 393, 48 h
MDA-MB-435 [17] = assay: Concentration required to decrease cell population by 50% on continuous exposure for 48 hr in Breast (MDA-MB-435) cell line; assay type: functional; conditions: Homo sapiens, MDA-MB-435, 48 h; read-out: LC50 (the source's name)
NCI-H522 [18] = assay: Concentration required to restrict cell growth to 50% on continuous exposure for 48 hr in Lung ([…]) cell line; assay type: functional; conditions: Homo sapiens, NCI-H522, 48 h

SMILES: COc1cc2c(cc1OC)N(C(=O)OCCSc1ccccc1)[C@@H](O)[C@@H]1CCCN1C2=O
- IC50 (A2780 [1]): > 25000 nM
- IC50 (CH1 [2]): > 25000 nM
- IC50 (A2780 [3]): > 25000 nM
- IC50 (SK-OV-3): > 25000 nM
- IC50 (CH1 [4]): > 25000 nM
- Resistance factor [5]: inactive

SMILES: COc1cc2c(cc1OC)C(=O)N1CCC[C@H]1C=N2
- Resistance factor [6]: 2.4 and 1.3
- IC50 (A2780 [1]): 64 nM
- IC50 (CH1 [2]): 110 nM
- IC50 (A2780 [3]): 155 nM
- IC50 (SK-OV-3): 1700 nM
- IC50 (CH1 [4]): 82 nM

SMILES: COc1cc2c(cc1OC)N(C(=O)OCCS(=O)(=O)c1ccccc1)[C@@H](O)[C@@H]1CCCN1C2=O
- GI50 (SNB-75 [7]): 720 nM
- CC50 (NCI-H522 [8]): 1380 nM
- Resistance factor [6]: 1 and 1.2
- IC50 (A2780 [1]): 480 nM
- IC50 (CH1 [2]): 470 nM
- GI50 (MDA-MB-435 [9]): 450 nM
- IC50 (A2780 [3]): 490 nM
- CC50 (SK-MEL-5 [10]): 6780 nM
- GI50 (COLO 205 [11]): 190 nM
- GI50 (SK-MEL-5 [12]): 290 nM
- CC50 (COLO 205 [13]): 710 nM
- CC50 (RXF 393 [14]): 2970 nM
- IC50 (SK-OV-3): 560 nM
- CC50 (SNB-75 [15]): 9000 nM
- GI50 (RXF 393 [16]): 240 nM
- CC50 (MDA-MB-435 [17]): 4330 nM
- GI50 (NCI-H522 [18]): 110 nM
- IC50 (CH1 [4]): 400 nM
